Experiments:
Assay in all cases: relative viability (nuclei count vs DMSO), 5 days (fraction); higher = more cells survive
LXF-289 = system: LXF-289
How it was run: (§1)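 Dosing by pin tool came one day after lung cancer cell lines were seeded in 1536-well plates, using either one drug or a fixed anchor-drug dose plus five library-drug doses (not always all listed) in √10 steps. After 5 days, nuclei were counted on 4× images. Relative viability is treated-well nuclei count divided by vehicle-well nuclei count, and values are medians of duplicate plates.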

NCI-H650 = system: NCI-H650
How it was run: as §1

NCI-H596 = system: NCI-H596
How it was run: as §1

NCI-H522 = system: NCI-H522
How it was run: as §1

PC-14 = system: PC-14
How it was run: as §1

SW 900 = system: SW 900
How it was run: as §1

NCI-H520 = system: NCI-H520
How it was run: as §1

NCI-H2170 = system: NCI-H2170
How it was run: as §1

NCI-H441 = system: NCI-H441
How it was run: as §1

NCI-H661 = system: NCI-H661
How it was run: as §1

NCI-H460 = system: NCI-H460
How it was run: as §1

NCI-H3122 = system: NCI-H3122
How it was run: as §1

NCI-H727 = system: NCI-H727
How it was run: as §1

SK-MES-1 = system: SK-MES-1
How it was run: as §1

NCI-H2347 = system: NCI-H2347
How it was run: as §1

NCI-H1915 = system: NCI-H1915
How it was run: as §1

NCI-H1563 = system: NCI-H1563
How it was run: as §1

NCI-H1792 = system: NCI-H1792
How it was run: as §1

RERF-LC-KJ = system: RERF-LC-KJ
How it was run: as §1

NCI-H1651 = system: NCI-H1651
How it was run: as §1

NCI-H1355 = system: NCI-H1355
How it was run: as §1

NCI-H1755 = system: NCI-H1755
How it was run: as §1

NCI-H322M = system: NCI-H322M
How it was run: as §1

LCLC-103H = system: LCLC-103H
How it was run: as §1

`CC(C)Oc1cc(Nc2nc(N[C@@H](C)c3ccc(F)cn3)ncc2Cl)n[nH]1` [AZ23] + CCNC(=O)c1noc(-c2cc(C(C)C)c(O)cc2O)c1-c1ccc(CN2CCOCC2)cc1 [Luminespib] (partner 0.01 µM) was tested, and the relative viability (LXF-289; first compound 0.01 µM) was 0.884, the relative viability (LXF-289; first compound 0.03162 µM) was 0.745 and the relative viability (LXF-289; first compound 0.3162 µM) was 0.598. It also gave a relative viability (NCI-H650; first compound 0.01 µM) of 0.665, a relative viability (NCI-H650; first compound 0.03162 µM) of 0.854 and a relative viability (NCI-H650; first compound 0.3162 µM) of 0.765. The relative viability (NCI-H596; first compound 0.01 µM) was 1.13, the relative viability (NCI-H596; first compound 0.03162 µM) was 1.06 and the relative viability (NCI-H596; first compound 0.3162 µM) was 0.857. The relative viability (NCI-H522; first compound 0.01 µM) was 1.06, the relative viability (NCI-H522; first compound 0.03162 µM) was 1.08 and the relative viability (NCI-H522; first compound 0.3162 µM) was 1.15. For the same molecule, the relative viability (PC-14; first compound 0.03162 µM) was 0.21, the relative viability (PC-14; first compound 0.3162 µM) was 0.21 and the relative viability (SW 900; first compound 0.01 µM) was 0.174. The relative viability (SW 900; first compound 0.03162 µM) was 0.143, the relative viability (SW 900; first compound 0.3162 µM) was 0.174 and the relative viability (NCI-H520; first compound 0.01 µM) was 0.236. It also gave a relative viability (NCI-H520; first compound 0.03162 µM) of 0.22, a relative viability (NCI-H520; first compound 0.3162 µM) of 0.212 and a relative viability (NCI-H2170; first compound 0.01 µM) of 1.01. It also gave a relative viability (NCI-H2170; first compound 0.03162 µM) of 0.739, a relative viability (NCI-H2170; first compound 0.3162 µM) of 0.822 and a relative viability (NCI-H441; first compound 0.01 µM) of 0.28. The relative viability (NCI-H441; first compound 0.03162 µM) was 0.344, the relative viability (NCI-H441; first compound 0.3162 µM) was 0.376 and the relative viability (NCI-H661; first compound 0.01 µM) was 1.06. It also gave a relative viability (NCI-H661; first compound 0.03162 µM) of 0.867, a relative viability (NCI-H661; first compound 0.3162 µM) of 0.984 and a relative viability (NCI-H460; first compound 0.01 µM) of 0.0317. For the same molecule, the relative viability (NCI-H460; first compound 0.03162 µM) was 0.0332, the relative viability (NCI-H460; first compound 0.3162 µM) was 0.0248 and the relative viability (NCI-H3122; first compound 0.01 µM) was 0.111. For the same molecule, the relative viability (NCI-H3122; first compound 0.03162 µM) was 0.0892, the relative viability (NCI-H3122; first compound 0.3162 µM) was 0.0986 and the relative viability (NCI-H727; first compound 0.01 µM) was 0.354. For the same molecule, the relative viability (NCI-H727; first compound 0.03162 µM) was 0.311, the relative viability (NCI-H727; first compound 0.3162 µM) was 0.454 and the relative viability (SK-MES-1; first compound 0.03162 µM) was 0.834. The relative viability (SK-MES-1; first compound 0.3162 µM) was 0.952, the relative viability (NCI-H2347; first compound 0.01 µM) was 0.486 and the relative viability (NCI-H2347; first compound 0.03162 µM) was 0.62. For the same molecule, the relative viability (NCI-H2347; first compound 0.3162 µM) was 0.41, the relative viability (NCI-H1915; first compound 0.01 µM) was 1.17 and the relative viability (NCI-H1915; first compound 0.03162 µM) was 0.866. For the same molecule, the relative viability (NCI-H1915; first compound 0.3162 µM) was 0.805, the relative viability (NCI-H1563; first compound 0.01 µM) was 0.544 and the relative viability (NCI-H1563; first compound 0.03162 µM) was 0.571. For the same molecule, the relative viability (NCI-H1563; first compound 0.3162 µM) was 0.596, the relative viability (NCI-H1792; first compound 0.01 µM) was 0.305 and the relative viability (NCI-H1792; first compound 0.03162 µM) was 0.646. It also gave a relative viability (NCI-H1792; first compound 0.3162 µM) of 0.466, a relative viability (RERF-LC-KJ; first compound 0.01 µM) of 1.34 and a relative viability (RERF-LC-KJ; first compound 0.03162 µM) of 1.43. For the same molecule, the relative viability (RERF-LC-KJ; first compound 0.3162 µM) was 1.38, the relative viability (NCI-H1651; first compound 0.03162 µM) was 0.753 and the relative viability (NCI-H1651; first compound 0.3162 µM) was 0.672. For the same molecule, the relative viability (NCI-H1355; first compound 0.01 µM) was 0.671, the relative viability (NCI-H1355; first compound 0.03162 µM) was 0.768 and the relative viability (NCI-H1355; first compound 0.3162 µM) was 0.715. For the same molecule, the relative viability (NCI-H1755; first compound 0.01 µM) was 0.293, the relative viability (NCI-H1755; first compound 0.03162 µM) was 0.605 and the relative viability (NCI-H1755; first compound 0.3162 µM) was 0.634. It also gave a relative viability (NCI-H322M; first compound 0.03162 µM) of 0.879, a relative viability (NCI-H322M; first compound 0.3162 µM) of 1.08 and a relative viability (LCLC-103H; first compound 0.01 µM) of 1.04. The relative viability (LCLC-103H; first compound 0.03162 µM) was 0.923 and the relative viability (LCLC-103H; first compound 0.3162 µM) was 1.03.
